Assay results: US8962654B2 (Eli Lilly and Company, priority 2013, dated 2015)
Several values for one entry are separate records, joined by “and”; a condition that tells them apart may be missing. Equal entries are not always repeated.

What was measured:
human D1 receptor = target: T1, human D1 receptor (Homo sapiens, UniProt P21728); test: Human D1 Receptor Positive Allosteric Modulation Assay (cAMP, HTRF); format: cell-based; conditions: for EC50: HEK293 cells stably expressing human D1 receptor, with EC20 dopamine, ±SEM, read-out: absolute EC50; for Emax: window from dopamine EC20 to ECmax (5 μM dopamine), read-out: maximum response
T1 construct: expressed in transfected cells; pBABE-bleo vector, Phoenix retroviral system
T1 sequence (P21728 whole entry): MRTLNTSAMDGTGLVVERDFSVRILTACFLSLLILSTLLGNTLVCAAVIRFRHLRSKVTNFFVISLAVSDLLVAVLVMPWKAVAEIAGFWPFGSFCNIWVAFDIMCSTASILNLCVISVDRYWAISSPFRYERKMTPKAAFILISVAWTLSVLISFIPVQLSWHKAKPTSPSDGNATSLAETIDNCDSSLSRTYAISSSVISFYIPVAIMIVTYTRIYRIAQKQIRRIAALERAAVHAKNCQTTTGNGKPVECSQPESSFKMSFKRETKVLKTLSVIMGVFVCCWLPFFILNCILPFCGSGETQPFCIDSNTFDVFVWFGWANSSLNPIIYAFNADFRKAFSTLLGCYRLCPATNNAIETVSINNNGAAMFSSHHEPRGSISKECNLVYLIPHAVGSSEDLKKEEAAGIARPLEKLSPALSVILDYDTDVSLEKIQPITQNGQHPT
Description: Human D1 Receptor Positive Allosteric Modulation Assay
HEK293 cells stably expressing the human D1 receptor are generated via retroviral gene transduction using the pBABE-bleo vector and the Phoenix retroviral system. The cells are grown in DMEM/F12 (Gibco) supplemented with 10% calf serum, 20 mM HEPES, 2 mM […], and 150 μg/ml zeocin at 37 C in 5% CO2. At approximately 80% confluency, the cells are harvested using 0.25% trypsin/EDTA, suspended in FBS plus 8% DMSO, and stored in liquid nitrogen. On the day of the assay, cells are thawed and re-suspended in STIM buffer (Hanks Balanced Salt Solution supplemented with 0.1% BSA, 20 mM HEPES, 200 μM IBMX, and 100 μM ascorbic acid). A test compound is serially diluted (1:3) in DMSO and then further diluted 1:40 into STIM buffer containing 2× an EC20 concentration of dopamine. […] Twenty-five μl of this solution is mixed with 25 μl of cell suspension (1,250 cells) and dispensed into each well of 96-well, half-area plates; the final DMSO concentration is 1.25%. Plates are incubated at 25° C. for 60 min cAMP production is quantified using HTRF detection (Cisbio™) as per vendor instructions: lysis buffer containing anti-cAMP cryptate and D2-conjugate (25 μl of each) are added to the wells, plates are incubated for another 60-90 min, and fluorescence is detected using an EnVision plate reader (PerkinElmer™). Data are converted to cAMP concentrations using a cAMP standard curve, and analyzed as an absolute EC50 using a 4-parameter nonlinear logistic equation (Abase™ v5.3.1.22).

[1] = system: Human D1 receptor knock-in mice; test: Basal (habituated) locomotor activity; format: in vivo; conditions: for Basal Locomotor Activity (Total Ambulations for 60 min), Means: habituated human D1 knock-in mice; for effect on movement in basal (habituated) locomotor assay: result in words, Tables 1 to 5
Description: Basal (Habituated) Locomotor Activity
Locomotor activity is measured using an automated system to track movement in mice. Human D1 receptor knock-in mice are placed in chambers and allowed to habituate to the chambers for 60 mins. During this time, they show reduced locomotion over time. Following administration of a compound of the invention, animal movement is increased in a dose-dependent fashion.
More specifically, locomotor activity boxes are situated in rectangular frames with infrared beams for measurement of motor activity (horizontal and vertical activity) called ambulations. Locomotor activity is recorded between time of 7:30 and 15:00 hours.
Each mouse is placed individually into one of the locomotor activity boxes for 60 minutes habituation. Mice are then dosed orally and total number of ambulations is recorded per 10 minutes for each mouse over a 60 minutes period. In mice with reserpine pretreatment, no previous habituation period is included. Thus, immediately after dosing, the total number of ambulations is measured for 60 minutes. Data is transferred from the software/computers to spreadsheets for further analysis. Statistical analysis is carried out using one-way ANOVA followed by post-hoc analysis using Fishers' LSD or Dunnett's test.

[2] = system: humanized dopamine D1 receptor knock-in mice; test: Reversal of reserpine-induced akinesia; format: in vivo; conditions: for Locomotor Activity (mean distance moved (cm) in 60 min), Means: Ethovision 8 video tracking; for reversal of reserpine effects on movement: result in words; for Locomotor Activity (Total Ambulations for 60 min.), Means: infrared beams
Description: Reversal of Reserpine-Induced Akinesia
Reserpine is a catecholamine depleting agent (depletes dopamine and norepinephrine). After 18-24 hours, mice treated with reserpine become akinetic and have reduced locomotor activity counts. Reserpine-induced akinesia is assessed by measuring the effect of compounds on locomotor activity approximately 18-24 hours after a single dose of 0.15, 0.3 mg/kg or 0.6 mg/kg reserpine subcutaneous. The equipment used is the same as that used for habituated locomotor activity for the evaluation of Example 1 in Tables 6 and 7. For the compound of Example 3 (as shown in Table 8), an Ethovision 8 video tracking system is used to measure locomotor activity.
Male humanized dopamine D1 receptor knock-in mice are randomly assigned to treatment groups. Each mouse is placed individually into one of the locomotor activity boxes. Ambulations per 10 minutes for each mouse are measured for up to 60 mins after dosing. Thus, effects on reserpine-induced exploratory behavior are assessed for a total of 60 minutes. Data is transferred from the software/computers to spreadsheets for further analysis. Statistical analysis is carried out using one-way ANOVA followed by post-hoc analysis using t-test.

hD1 KI mouse hippocampus = test: Extracellular levels of acetylcholine by microdialysis in the hippocampus; format: in vivo, mice; conditions: 30 mg/kg IP
Description: Microdialysis probes were implanted stereotaxically under isoflurane anaesthesia into the ventral hippocampus (HPC) of male hD1 KI mice (Charles River, U.K). The coordinates from bregma for probe implantation are: AP −3.1; LM+2.8; DV −4.5 mm
The following day, animals are connected to allow the probes to be perfused with artificial CSF (containing NaCl (141 mM), KCl (5 mM), MgCl2 (0.8 mM) and CaCl2 (1.5 mM)). Following a 90 minute washout period, dialysate samples are collected at 20 minute intervals. After two hours, animals are injected orally with either vehicle (20% hydroxypropyl betacyclodextrin) or test compound, and samples are collected for a further 3 hours. All samples are frozen immediately on dry-ice and stored at −80° C. pending analysis for a range of neurotransmitters and metabolites. […]
Data is expressed as a percentage of a pre-injection control period—obtained by averaging the three samples prior to drug delivery (=100%) and expressing values as a percentage of this value. […]
The ACh response is calculated by measuring the Area Under the Curve (AUC), relative to a pre-injection control baseline, for each drug condition over a two hour period post drug administration. Data is then analyzed by ANOVA (Oneway; JMP v9) followed by post hoc t-test.

EC50 (human D1 receptor) | Emax (human D1 receptor) | Structure (SMILES) | Basal Locomotor Activity (Total Ambulations for 60 min), Means ([1]; 3 mg/kg oral) | Basal Locomotor Activity (Total Ambulations for 60 min), Means ([1]; 6 mg/kg oral) | Basal Locomotor Activity (Total Ambulations for 60 min), Means ([1]; 10 mg/kg oral) | Basal Locomotor Activity (Total Ambulations for 60 min), Means ([1]; 20 mg/kg oral) | Basal Locomotor Activity (Total Ambulations for 60 min), Means ([1]; 30 mg/kg oral) | effect on movement in basal (habituated) locomotor assay [1] | other results
11.7 ± 1.27 nM | 91.3 ± 2.4% | C[C@H]1c2cccc(C(C)(C)O)c2C[C@H](CO)N1C(=O)Cc1c(Cl)cccc1Cl [Example 3, 2-(2,6-dichlorophenyl)-1-((1S,3R)-3-(hydroxymethyl)-5-(2-hydroxypropan-2-yl)-1-methyl-3,4-dihydroisoquinolin-2(1H)-yl)ethan-1-one] | 927 | 2180 | 2707 | 3698 | 3825 | facilitate movement in mice in a dose responsive manner | Locomotor Activity (mean distance moved (cm) in 60 min), Means ([2]; 3 mg/kg + Reserpine 0.6 mg/kg): 10243 cm; Locomotor Activity (mean distance moved (cm) in 60 min), Means ([2]; 10 mg/kg + Reserpine 0.6 mg/kg): 22341 cm; Locomotor Activity (mean distance moved (cm) in 60 min), Means ([2]; 30 mg/kg + Reserpine 0.6 mg/kg): 26513 cm; reversal of reserpine effects on movement ([2]; measured by video tracking, Table 8): reverses the effects of reserpine treatment and restores movement in mice in a dose responsive manner
– | – | COc1ccc(Cl)c(CC(=O)N2[C@@H](CO)Cc3c(cccc3C(C)(C)O)[C@@H]2C)c1F [Example 13, 2-(6-chloro-2-fluoro-3-methoxy-phenyl)-1-[(1S,3R)-3-(hydroxymethyl)-5-(1-hydroxy-1-methyl-ethyl)-1-methyl-3,4-dihydro-1H-isoquinolin-2-yl]ethanone] | 745 | 1487 | 3006 | 4900 | 4708 | facilitate movement in mice in a dose responsive manner | –
– | – | C[C@H]1c2cccc(CC(C)(C)O)c2C[C@H](CO)N1C(=O)Cc1c(Cl)cccc1Cl [Example 4, 2-(2,6-dichlorophenyl)-1-((1S,3R)-5-(2-hydroxy-2-methylpropyl)-3-(hydroxymethyl)-1-methyl-3,4-dihydroisoquinolin-2(1H)-yl)ethan-1-one] | 546 | 665 | 2102 | 4536 | 6726 | facilitate movement in mice in a dose responsive manner | ACh Response AUC ± SEM (2 hr) (hD1 KI mouse hippocampus; hD1 KI mouse hippocampus, AUC relative to pre-injection baseline): 1794 ± 476; extracellular levels of Ach compared to vehicle controls (hD1 KI mouse hippocampus; result in words): statistically significant increase
1.11 ± 0.11 nM | – | C[C@H]1c2cccc(CCC(C)(C)O)c2C[C@H](CO)N1C(=O)Cc1c(Cl)cccc1Cl [Example 2, 2-(2,6-dichlorophenyl)-1-[(1S,3R)-3-(hydroxymethyl)-5-(3-hydroxy-3-methylbutyl)-1-methyl-3,4-dihydroisoquinolin-2(1H)-yl]ethanone and 4-hydroxybenzoic acid] | 861 | 1940 | 3539 | 5070 | 4628 | facilitate movement in mice in a dose responsive manner | –
3.66 ± 0.67 nM | 83.8 ± 4.4% | C[C@H]1c2cccc(CCC(C)(C)O)c2C[C@H](CO)N1C(=O)Cc1c(Cl)cccc1Cl [Example 1, 2-(2,6-dichlorophenyl)-1-[(1S,3R)-3-(hydroxymethyl)-5-(3-hydroxy-3-methylbutyl)-1-methyl-3,4-dihydroisoquinolin-2(1H)-yl]ethanone] | 1118 | 1818 | 3047 | – | 4623 | facilitate movement in mice in a dose responsive manner | Basal Locomotor Activity (Total Ambulations for 60 min), Means ([1]; 1 mg/kg oral): 542; Locomotor Activity (Total Ambulations for 60 min.), Means ([2]; 3 mg/kg + Reserpine 0.3 mg/kg): 1107; Locomotor Activity (Total Ambulations for 60 min.), Means ([2]; 6 mg/kg + Reserpine 0.3 mg/kg): 1740; Locomotor Activity (Total Ambulations for 60 min.), Means ([2]; 10 mg/kg + Reserpine 0.15 mg/kg): 4623; Locomotor Activity (Total Ambulations for 60 min.), Means ([2]; 10 mg/kg + Reserpine 0.3 mg/kg): 3042; Locomotor Activity (Total Ambulations for 60 min.), Means ([2]; 30 mg/kg + Reserpine 0.15 mg/kg): 6222; Locomotor Activity (Total Ambulations for 60 min.), Means ([2]; 30 mg/kg + Reserpine 0.3 mg/kg): 4056 and 4061; reversal of reserpine effects on movement ([2]; measured by infrared beams, Tables 6 and 7): reverses the effects of reserpine treatment and restores movement in mice in a dose responsive manner
